Measurements reported in publication PMC9179154, “Identification of acetylated diether lipids in halophilic Archaea” (MicrobiologyOpen, 2022).

Target: T1, hvYvoF (YvoF from Haloferax volcanii) (Haloferax volcanii, UniProt D4GZM3)
T1 construct: full length, C-terminal His6 tag, pTA1228 vector, NdeI/XhoI; homologous expression in H. volcanii H1424, IMAC; printed cloning primers encode N-terminus MTDDDAAP and C-terminus DETDGA before LE of the XhoI site
Assay: […]-GGG acetylation, TLC and autoradiography
Type: biochemical
Conditions: acetyl-CoA 0.25 mM, MgCl2 10 mM, 1300 mM NaCl, 0.2% Tween80, pH 8.0, 40 °C; labelled compound

T1 sequence (D4GZM3 entry or part of it): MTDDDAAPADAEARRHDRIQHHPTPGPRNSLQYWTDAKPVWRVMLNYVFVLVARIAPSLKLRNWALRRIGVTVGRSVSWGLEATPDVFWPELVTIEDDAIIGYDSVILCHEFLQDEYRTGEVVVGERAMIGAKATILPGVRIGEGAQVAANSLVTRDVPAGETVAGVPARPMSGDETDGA

CC(C)=CCC/C(C)=C/CC/C(C)=C/CC/C(C)=C/COC[C@H](O)CO [GGG, geranylgeranylglycerol]
14C-GGG acetylation, TLC and autoradiography: GGG was gradually diacetylated (to Ac2‐GGG) by hvYvoF with increasing incubation time
